Source: patent US4517181A, “Mammalian PGRF” (The Salk Institute for Biological Studies, priority 1982, dated 1985)

Test system: cells of rat pituitary glands
Assay: in vitro GH release, rat pituitary cell monolayer culture bioassay (ir GH by radioimmunoassay)
Assay type: cell-based
Conditions: for biological potency (additional testing): compared with PGRF (1-40); for GH secretion in vitro % of controls: Table III
Method: To determine the effectiveness of the peptides to promote the release of growth hormone, in vitro assays are carried out using synthetic PGRF (1-40) of Example II in side-by-side comparison with equimolar concentrations of the extracted and purified native PGRF (1-40) and of a GRF Reference Standard having a known effectiveness to promote the release of growth hormone from pituitary cells. The GRF Reference standard is described and defined in Brazeau, et al., Endocrinology, Vol. 110, A538(1982) and is an amount of a preparation of rat hypothalamic origin that produces a half-maximal response in terms of GH release in a pituitary cell monolayer bioassay. Cultures are used which include cells of rat pituitary glands removed some four to five days previously. Both cultures of a defined standard medium and cultures which are considered optimal for the secretion of growth hormone are used for the comparative testing, in the general manner described in Brazeau, et al. Regulatory Peptides, 1, 255, 1981. Incubation with the substance to be tested is carried out for 3 to 4 hours, and aliquots of the culture medium are removed and processed to measure their contents in inmunoreactive GH(ir GH) by a well-characterized radioimmunoassay.
The in vitro assays described in Example VII are repeated using Native PGRF(1-40) and Native PGRF(1-44) and the results are set forth in following Table III: […]

## CC[C@H](C)[C@H](NC(=O)[C@H](C)NC(=O)[C@H](CC(=O)O)NC(=O)[C@H](C)NC(=O)[C@@H](N)Cc1ccc(O)cc1)C(=O)N[C@@H](Cc1ccccc1)C(=O)N[C@H](C(=O)N[C@@H](CC(N)=O)C(=O)N[C@@H](CO)C(=O)N[C@@H](Cc1ccc(O)cc1)C(=O)N[C@@H](CCCNC(=N)N)C(=O)N[C@@H](CCCCN)C(=O)N[C@H](C(=O)N[C@@H](CC(C)C)C(=O)NCC(=O)N[C@@H](CCC(N)=O)C(=O)N[C@@H](CC(C)C)C(=O)N[C@@H](CO)C(=O)N[C@@H](C)C(=O)N[C@@H](CCCNC(=N)N)C(=O)N[C@@H](CCCCN)C(=O)N[C@@H](CC(C)C)C(=O)N[C@@H](CC(C)C)C(=O)N[C@@H](CCC(N)=O)C(=O)N[C@@H](CC(=O)O)C(=O)N[C@H](C(=O)N[C@@H](CCSC)C(=O)N[C@@H](CO)C(=O)N[C@@H](CCCNC(=N)N)C(=O)N[C@@H](CCC(N)=O)C(=O)N[C@@H](CCC(N)=O)C(=O)NCC(=O)N[C@@H](CCC(=O)O)C(=O)N[C@@H](C)C(=O)N[C@@H](CC(N)=O)C(=O)N[C@@H](CCC(N)=O)C(=O)N[C@@H](CCC(=O)O)C(=O)N[C@@H](CO)C(=O)NCC(=O)N[C@@H](CCCNC(=N)N)C(=O)O)[C@@H](C)CC)C(C)C)[C@@H](C)O [Example IV]
  biological potency (additional testing): substantially the same biological potency as the native PGRF (1-40)

## CC[C@H](C)[C@H](NC(=O)[C@H](C)NC(=O)[C@H](CC(=O)O)NC(=O)[C@H](C)NC(=O)[C@@H](N)Cc1ccc(O)cc1)C(=O)N[C@@H](Cc1ccccc1)C(=O)N[C@H](C(=O)N[C@@H](CC(N)=O)C(=O)N[C@@H](CO)C(=O)N[C@@H](Cc1ccc(O)cc1)C(=O)N[C@@H](CCCNC(=N)N)C(=O)N[C@@H](CCCCN)C(=O)N[C@H](C(=O)N[C@@H](CC(C)C)C(=O)NCC(=O)N[C@@H](CCC(N)=O)C(=O)N[C@@H](CC(C)C)C(=O)N[C@@H](CO)C(=O)N[C@@H](C)C(=O)N[C@@H](CCCNC(=N)N)C(=O)N[C@@H](CCCCN)C(=O)N[C@@H](CC(C)C)C(=O)N[C@@H](CC(C)C)C(=O)N[C@@H](CCC(N)=O)C(=O)N[C@@H](CC(=O)O)C(=O)N[C@H](C(=O)N[C@@H](CCSC)C(=O)N[C@@H](CO)C(=O)N[C@@H](CCCNC(=N)N)C(=O)N[C@@H](CCC(N)=O)C(=O)N[C@@H](CCC(N)=O)C(=O)NCC(=O)N[C@@H](CCC(=O)O)C(=O)N[C@@H](CO)C(=O)N[C@@H](CC(N)=O)C(=O)N[C@@H](CCC(N)=O)C(=O)N[C@@H](CCC(=O)O)C(=O)O)[C@@H](C)CC)C(C)C)[C@@H](C)O [PGRF(1-37) free acid]
Peptides isolated from human islet cell tumor
  GH-releasing activity: exhibit GH-releasing activity

## CC[C@H](C)[C@H](NC(=O)[C@H](C)NC(=O)[C@H](CC(=O)O)NC(=O)[C@H](C)NC(=O)[C@@H](N)Cc1ccc(O)cc1)C(=O)N[C@@H](Cc1ccccc1)C(=O)N[C@H](C(=O)N[C@@H](CC(N)=O)C(=O)N[C@@H](CO)C(=O)N[C@@H](Cc1ccc(O)cc1)C(=O)N[C@@H](CCCNC(=N)N)C(=O)N[C@@H](CCCCN)C(=O)N[C@H](C(=O)N[C@@H](CC(C)C)C(=O)NCC(=O)N[C@@H](CCC(N)=O)C(=O)N[C@@H](CC(C)C)C(=O)N[C@@H](CO)C(=O)N[C@@H](C)C(=O)N[C@@H](CCCNC(=N)N)C(=O)N[C@@H](CCCCN)C(=O)N[C@@H](CC(C)C)C(=O)N[C@@H](CC(C)C)C(=O)N[C@@H](CCC(N)=O)C(=O)N[C@@H](CC(=O)O)C(=O)N[C@H](C(=O)N[C@@H](CCSC)C(=O)N[C@@H](CO)C(=O)N[C@@H](CCCNC(=N)N)C(=O)N[C@@H](CCC(N)=O)C(=O)N[C@@H](CCC(N)=O)C(=O)NCC(=O)N[C@@H](CCC(=O)O)C(=O)N[C@@H](CO)C(=O)N[C@@H](CC(N)=O)C(=O)N[C@@H](CCC(N)=O)C(=O)N[C@@H](CCC(=O)O)C(=O)N[C@@H](CCCNC(=N)N)C(=O)NCC(=O)N[C@@H](C)C(=O)N[C@@H](CCCNC(=N)N)C(=O)N[C@@H](C)C(=O)N[C@@H](CCCNC(=N)N)C(=O)N[C@@H](CC(C)C)C(=O)O)[C@@H](C)CC)C(C)C)[C@@H](C)O [synthetic PGRF(1-44)-free acid, PGRF(1-44) free acid]
  potency compared with native PGRF(1-44) (further testing): somewhat less potency than native PGRF(1-44)

## CC[C@H](C)[C@H](NC(=O)[C@H](C)NC(=O)[C@H](CC(=O)O)NC(=O)[C@H](C)NC(=O)[C@@H](N)Cc1ccc(O)cc1)C(=O)N[C@@H](Cc1ccccc1)C(=O)N[C@H](C(=O)N[C@@H](CC(N)=O)C(=O)N[C@@H](CO)C(=O)N[C@@H](Cc1ccc(O)cc1)C(=O)N[C@@H](CCCNC(=N)N)C(=O)N[C@@H](CCCCN)C(=O)N[C@H](C(=O)N[C@@H](CC(C)C)C(=O)NCC(=O)N[C@@H](CCC(N)=O)C(=O)N[C@@H](CC(C)C)C(=O)N[C@@H](CO)C(=O)N[C@@H](C)C(=O)N[C@@H](CCCNC(=N)N)C(=O)N[C@@H](CCCCN)C(=O)N[C@@H](CC(C)C)C(=O)N[C@@H](CC(C)C)C(=O)N[C@@H](CCC(N)=O)C(=O)N[C@@H](CC(=O)O)C(=O)N[C@H](C(=O)N[C@@H](CCSC)C(=O)N[C@@H](CO)C(=O)N[C@@H](CCCNC(=N)N)C(=O)N[C@@H](CCC(N)=O)C(=O)N[C@@H](CCC(N)=O)C(=O)NCC(=O)N[C@@H](CCC(=O)O)C(=O)N[C@@H](CO)C(=O)N[C@@H](CC(N)=O)C(=O)N[C@@H](CCC(N)=O)C(=O)N[C@@H](CCC(=O)O)C(=O)O)[C@@H](C)CC)C(C)C)[C@@H](C)O [Example VI, PGRF (1-37)-free acid]
  biological potency (additional testing): very substantial biological potency

## CC[C@H](C)[C@H](NC(=O)[C@H](C)NC(=O)[C@H](CC(=O)O)NC(=O)[C@H](C)NC(=O)[C@@H](N)Cc1ccc(O)cc1)C(=O)N[C@@H](Cc1ccccc1)C(=O)N[C@H](C(=O)N[C@@H](CC(N)=O)C(=O)N[C@@H](CO)C(=O)N[C@@H](Cc1ccc(O)cc1)C(=O)N[C@@H](CCCNC(=N)N)C(=O)N[C@@H](CCCCN)C(=O)N[C@H](C(=O)N[C@@H](CC(C)C)C(=O)NCC(=O)N[C@@H](CCC(N)=O)C(=O)N[C@@H](CC(C)C)C(=O)N[C@@H](CO)C(=O)N[C@@H](C)C(=O)N[C@@H](CCCNC(=N)N)C(=O)N[C@@H](CCCCN)C(=O)N[C@@H](CC(C)C)C(=O)N[C@@H](CC(C)C)C(=O)N[C@@H](CCC(N)=O)C(=O)N[C@@H](CC(=O)O)C(=O)N[C@H](C(=O)N[C@@H](CCSC)C(=O)N[C@@H](CO)C(=O)N[C@@H](CCCNC(=N)N)C(=O)N[C@@H](CCC(N)=O)C(=O)N[C@@H](CCC(N)=O)C(=O)NCC(=O)N[C@@H](CCC(=O)O)C(=O)N[C@@H](CO)C(=O)N[C@@H](CC(N)=O)C(=O)N[C@@H](CCC(N)=O)C(=O)N[C@@H](CCC(=O)O)C(=O)N[C@@H](CCCNC(=N)N)C(=O)NCC(=O)N[C@@H](C)C(=O)N[C@@H](CCCNC(=N)N)C(=O)N[C@@H](C)C(=O)N[C@@H](CCCNC(=N)N)C(=O)N[C@@H](CC(C)C)C(N)=O)[C@@H](C)CC)C(C)C)[C@@H](C)O [Native PGRF (1-44)]
6.3 femtomoles
  GH secretion in vitro % of controls: 289 ± 10 % of controls
12.5 femtomoles
  GH secretion in vitro % of controls: 391 ± 8 % of controls
25.0 femtomoles
  GH secretion in vitro % of controls: 479 ± 8 % of controls
50.0 femtomoles
  GH secretion in vitro % of controls: 561 ± 14 % of controls
100.0 femtomoles
  GH secretion in vitro % of controls: 599 ± 7 % of controls
200.0 femtomoles
  GH secretion in vitro % of controls: 606 ± 6 % of controls
400.0 femtomoles
  GH secretion in vitro % of controls: 610 ± 5 % of controls
Confidence limits of 1.616 and 3.131, computer calculated (BIOPROG)
  Potency in terms of PGRF(1-40): 2.2261 ×PGRF(1-40)
Per 1 femtomole, confidence limits of 0.122 and 0.239, computer calculated (BIOPROG)
  Potency in terms of GRF Reference Standard: 0.1696 unit

## CC[C@H](C)[C@H](NC(=O)[C@H](C)NC(=O)[C@H](CC(=O)O)NC(=O)[C@H](C)NC(=O)[C@@H](N)Cc1ccc(O)cc1)C(=O)N[C@@H](Cc1ccccc1)C(=O)N[C@H](C(=O)N[C@@H](CC(N)=O)C(=O)N[C@@H](CO)C(=O)N[C@@H](Cc1ccc(O)cc1)C(=O)N[C@@H](CCCNC(=N)N)C(=O)N[C@@H](CCCCN)C(=O)N[C@H](C(=O)N[C@@H](CC(C)C)C(=O)NCC(=O)N[C@@H](CCC(N)=O)C(=O)N[C@@H](CC(C)C)C(=O)N[C@@H](CO)C(=O)N[C@@H](C)C(=O)N[C@@H](CCCNC(=N)N)C(=O)N[C@@H](CCCCN)C(=O)N[C@@H](CC(C)C)C(=O)N[C@@H](CC(C)C)C(=O)N[C@@H](CCC(N)=O)C(=O)N[C@@H](CC(=O)O)C(=O)N[C@H](C(=O)N[C@@H](CCSC)C(=O)N[C@@H](CO)C(=O)N[C@@H](CCCNC(=N)N)C(=O)N[C@@H](CCC(N)=O)C(=O)N[C@@H](CCC(N)=O)C(=O)NCC(=O)N[C@@H](CCC(=O)O)C(=O)N[C@@H](CO)C(=O)N[C@@H](CC(N)=O)C(=O)N[C@@H](CCC(N)=O)C(=O)N[C@@H](CCC(=O)O)C(=O)N[C@@H](CCCNC(=N)N)C(=O)NCC(=O)N[C@@H](C)C(N)=O)[C@@H](C)CC)C(C)C)[C@@H](C)O [Example V, PGRF (1-40)-amide]
  biological potency (additional testing): substantially twice the biological potency of the synthetic peptide tested in Example VII
